Data taken from US20260193254A1, “2-OXOQUINAZOLINE CRYSTALLINE FORMS” (IDEAYA Biosciences, Inc., priority 2022, published 2026).

What was measured:
Format in all cases: physicochemical
[1] = Crystallization at room temperature by slow evaporation; conditions: ambient condition
Source text: Combined with approximate solubility experiment, solubility samples were filtered by 0.45 μm nylon filter. Obtained solutions were slow evaporated at ambient condition. Solid residues were examined for their polymorphic form.

[2] = Behavior under compression; conditions: 2 Mpa/2 min, hydraulic press
Procedure: XRPD characterization was performed to investigate polymorphic behavior under compression.

[3] = Precipitation by addition of anti-solvent; conditions: 1/5 (v:v)
Procedure: Anti-solvent was added into the obtained solutions slowly. Precipitates were collected by filtration. The solid part (wet cake) was investigated by XRPD. When differences were observed, additional investigations will be performed (e.g. […] etc.).

[4] = Crystallization from hot saturated solutions by slow cooling; conditions: 50° C. to 5° C. at 0.1° C./min
Procedure: Obtained solution or suspension was filtered by a 0.45 μm syringe membrane filter. Clear solutions were cooled to 5° C. at 0.1° C./min. Precipitates were collected by filtration. The solid part (wet cake) was investigated by XRPD. When differences were observed, additional investigations were performed (e.g. DSC, TGA, etc.).

[5] = Equilibration with solvents at 25° C. for 2 weeks; conditions: equilibration at 25° C. for 2 weeks
Procedure: (§1) Obtained suspension was filtered. The solid part (wet cake) was investigated by XRPD. When differences were observed, additional investigations were performed (e.g. DSC, TGA etc.).

[6] = Equilibration with solvents at 50° C. for 1 week; conditions: XRPD of wet cake
Procedure: as §1

[7] = Temperature cycling experiments; conditions: TC8 Acetone/water = 1/1 (v/v) (62 mg/mL), 5-50° C., 6 cycles
Procedure: After 6 cycles, precipitates were collected at 5° C. by centrifugation. The solid part (wet cake) was investigated by XRPD. When differences were observed, additional investigations were performed (e.g. DSC, TGA etc.).

[8] = Vapor diffusion experiments; conditions: VD6 Ethanol (8), anti-solvent t-Butyl methyl ether, 1:4, room temperature
Procedure: After sonication for about 30 seconds, obtained solution or suspension is filtered by a 0.45 μm syringe membrane filter. A clear solution is obtained. A suitable volume of the clear solution is transferred into a small glass vial (8 mL) without a lid and the lidless small vial was placed into a large glass vial (40 mL) containing anti-solvents in the bottom (solvent: anti-solvent=1:4, v/v). The large vials are tightly capped and placed at room temperature. Precipitates were collected by filtration. Solid part (wet cake) was investigated by XRPD.

[9] = Crystallization at room temperature by fast evaporation; conditions: nitrogen flow
Source text: The samples are filtered by 0.45 μm nylon filter. Obtained solutions were fast evaporated under nitrogen flow. Solid residues were examined for their polymorphic form.

[10] = Grinding simulation experiments - dry grinding
Procedure: About 20 mg of Form A, Form D, and Form T were ground manually with a mortar and a pestle for 5 min or 1 min. Potential from transition and degree of crystallinity were evaluated by XRPD.

[11] = Competitive equilibration experiments; conditions: 25° C. and 50° C.
Procedure: These solvents were saturated with the compound of Formula (I) before addition of the polymorph seeds. Obtained suspension was stirred at 25° C. or 50° C. for 5 days. Solid part (wet cake) was isolated by filtration and investigated by XRPD.

Nc1nc(=O)n(-c2ccccc2Cl)c2nc(C(F)(F)F)ccc12 [solid state Form V, 4-Amino-1-(2-chlorophenyl)-7-(trifluoromethyl)pyrido[2,3-d]pyrimidin-2(1H)-one]
Crystalline Form formed by slow evaporation ([1]; SE1 Methanol (15 mg/mL)): Solid state Form V
Crystalline Form formed by slow evaporation ([1]; SE2 Ethanol (7 mg/mL)): Form F with low crystalline
Crystalline Form formed by slow evaporation ([1]; SE3 2-Propanol (5 mg/mL)): Form J (IPA solvate)
Crystalline Form formed by slow evaporation ([1]; SE6 Acetone (5 mg/mL)): Form G
Crystalline Form formed by slow evaporation ([1]; SE7 Methyl ethyl ketone (5 mg/mL)): Form G
Crystalline Form formed by slow evaporation ([1]; SE9 Tetrahydrofuran (5 mg/mL)): Form K
Crystalline Form formed by slow evaporation ([1]; SE12 Methanol/Ethyl acetate = 1/1 (v/v) (7 mg/mL)): Solid state Form V
Crystalline Form formed by slow evaporation ([1]; SE13 Methanol/Acetonitrile = 1/1 (v/v) (11 mg/mL)): Solid state Form V
XRPD after compression [2]: No form change
Crystalline Form formed by addition of anti-solvent ([3]; AS5 Ethanol (7), anti-solvent Heptane): Form G
Crystalline Form formed by addition of anti-solvent ([3]; AS8 Ethanol (7), anti-solvent Water): Form F
Crystalline Form formed by slow cooling of hot saturated solution ([4]; SC2 Ethanol (14 mg/mL)): Form F
Crystalline Form formed by slow cooling of hot saturated solution ([4]; SC4 Acetone (7 mg/mL)): Form G
Crystalline Form formed by slow cooling of hot saturated solution ([4]; SC6 Ethanol/water = 1/1 (v/v) (8 mg/mL)): Form F
Crystalline Form formed by slow cooling of hot saturated solution ([4]; SC8 Ethanol/acetone = 1/1 (v/v) (16 mg/mL)): Form G
Crystalline Form ([5]; Acetone (63 mg/mL)): Form G
Crystalline Form ([5]; Acetone/water = 1/1 (v/v) (63 mg/mL)): Form G
Crystalline Form ([5]; Acetonitrile/water = 1/1 (v/v) (62 mg/mL)): Form A
Crystalline Form ([5]; Ethanol/water = 1/1 (v/v) (64 mg/mL)): Form C (hemi-hydrate)
Crystalline Form ([5]; Methanol (65 mg/mL)): Form C (hemi-hydrate)
Crystalline Form ([5]; Methanol/water = 1/1 (v/v) (64 mg/mL)): Form E (hemi-hydrate)
Crystalline Form ([5]; t-Butyl methyl ether (65 mg/mL)): Form H (MTBE solvate)
Crystalline Form ([5]; t-Butyl methyl ether/water = 95/5(v/v) (63 mg/mL)): Form H (MTBE solvate)
Crystalline Form formed by equilibration ([6]; EQ20 Water (64 mg/mL)): Form D (mono hydrate)
Crystalline Form formed by equilibration ([6]; EQ21 Methanol (63 mg/mL)): Form C (hemi-hydrate)
Crystalline Form formed by equilibration ([6]; EQ22 Methanol/water = 1/1 (v/v) (64 mg/mL)): Form E (hemi-hydrate)
Crystalline Form formed by equilibration ([6]; EQ24 Ethanol/water = 1/1 (v/v) (63 mg/mL)): Form C (hemi-hydrate)
Crystalline Form formed by equilibration ([6]; EQ26 Acetone (65 mg/mL)): Form G
Crystalline Form formed by equilibration ([6]; EQ27 Acetone/water = 1/1 (v/v) (63 mg/mL)): Form I
Crystalline Form formed by equilibration ([6]; EQ29 t-Butyl methyl ether (65 mg/mL)): Form H (MTBE solvate)
Crystalline Form formed by equilibration ([6]; EQ30 t-Butyl methyl ether/water = 95/5 (v/v) (63 mg/mL)): Form H (MTBE solvate)
Crystalline Form formed by temperature cycling [7]: Form G
Crystalline Form formed by vapor diffusion [8]: Form H
Crystalline Form formed by fast evaporation ([9]; FE1 Methanol (14 mg/mL)): Form B
Crystalline Form formed by fast evaporation ([9]; FE2 Ethanol (7 mg/mL)): Solid state Form V
Crystalline Form formed by fast evaporation ([9]; FE3 2-Propanol (4 mg/mL)): Solid state Form V
Crystalline Form formed by fast evaporation ([9]; FE6 Acetone (3 mg/mL)): Form G
Crystalline Form formed by fast evaporation ([9]; FE7 Methyl ethyl ketone (3 mg/mL)): Form G
Crystalline Form formed by fast evaporation ([9]; FE9 Tetrahydrofuran (4 mg/mL)): Form K
Crystalline Form formed by fast evaporation ([9]; FE10 Acetonitrile (3 mg/mL)): Solid state Form V
Crystalline Form formed by fast evaporation ([9]; FE12 Methanol/Ethyl acetate = 1/1 (v/v) (5 mg/mL)): Solid state Form V
Crystalline Form formed by fast evaporation ([9]; FE13 Methanol/Acetonitrile = 1/1 (v/v) (5 mg/mL)): Solid state Form V
Crystalline Form formed by fast evaporation ([9]; FE14 Ethanol/t-Butyl methyl ether = 1/1 (v/v) (5 mg/mL)): Solid state Form V
Crystalline Form formed by fast evaporation ([9]; FE15 Ethanol/Dichloromethane = 1/1 (v/v) (5 mg/mL)): Solid state Form V

Nc1nc(=O)n(-c2ccccc2Cl)c2nc(C(F)(F)F)ccc12 [Form A, 4-Amino-1-(2-chlorophenyl)-7-(trifluoromethyl)pyrido[2,3-d]pyrimidin-2(1H)-one]
XRPD after dry grinding ([10]; Dry grinding for 1 min): substantially amorphous
XRPD after dry grinding ([10]; Dry grinding for 5 min): substantially amorphous
tolerance to dry grinding ([10]; ground manually with mortar and pestle, 5 min or 1 min, XRPD): poor tolerance
form obtained in competitive equilibration experiments (relative stability of Form A and Form I) [11]: Form A were obtained from all the experiments
